Measured values taken from patent US6689803B2, “Compositions and methods for treating surgical adhesions” (Angiotech Pharmaceuticals, Inc., priority 1996, dated 2004).
Like-named read-outs stand apart in the source and are kept apart here.

What was measured:
[1] = test system: chick chorioallantoic membrane (CAM) vasculature; details: PCL paste (3 mg)
[2] = test system: LNCaP cells; experiment: LNCaP cell growth (crystal violet); assay type: cell-based, human; details: inferred from toxicity at 0.001 nM
Experimental: LNCaP cells were seeded at concentrations of 2×10^3 and 1×10^3 cells/well respectively in 96 well plates. […] After incubation, the cells were fixed with 1% glutaraldehyde solution, and stained for 5 minutes with 0.5% crystal violet. The dye was successively eluted with 100 μl of buffer solution and the absorbance was read on a Titertek Multiskan microplate reader using a wavelength of 492 nm Absorbance. Cell growth was expressed as a percentage relative to control wells in the absence of the compound (set at 100%).

[3] = test system: restenosis / intimal hyperplasia; experiment: Rat carotid artery balloon injury model of restenosis, perivascular treatment; assay type: in vivo; details: 10% camptothecin-loaded EVA film, 14 days, two animals
Experimental: WISTAR rats weighing 250 to 300 g were anesthetized by the intramuscular injection of Innovar (0.33 ml/kg). Once sedated they were then placed under Halothane anesthesia After general anesthesia was established, fur over the neck region was shaved, the skin clamped and swabbed with betadine. A vertical incision was made over the left carotid artery and the external carotid artery exposed. Two ligatures were placed around the external carotid artery and a transverse arteriotomy was made. […] The endothelium was denuded by passing the inflated balloon up and down the carotid artery three times. The catheter was then removed and the ligature tied off on the left external carotid artery. […] The wound was then closed.

[4] = test system: aggrecan mRNA; experiment: Expression of proteoglycan (aggrecan) in chondrocytes; assay type: cell-based, calf; details: all concentrations evaluated (10^−7 M to 10^−4 M)
Experimental: Primary chondrocyte cultures were freshly isolated from calf cartilage. The cells were plated at 2.5×10^6 per ml in 100×20 mm culture dishes and incubated in Ham's F12 medium containing 5% FBS overnight at 37° C. The cells were starved in serum-free medium overnight and then treated with anti-microtubule agents at various concentrations (10^−7 M, 10^−6 M, 10^−5 M and 10^−4 M) for 6 hours. […] Total RNA was isolated by the acidified guanidine isothiocyanate method and subjected to electrophoresis on a denatured gel. […] The exposed films were scanned and quantitatively analyzed with ImageQuant.

[5] = test system: collagenase (MMP-1) mRNA; experiment: IL-1 induced collagenase mRNA expression in chondrocytes (Northern blot); assay type: cell-based, calf; details: pre-incubation 6 hours, IL-1 20 ng/ml 18 hours
Experimental: Total RNA was isolated, and the MMP-1 mRNA levels were determined by Northern blot analysis. The blots were subsequently stripped and reprobed with ^32P-radiolabeled rat GAPDH cDNA, which was used as a housekeeping gene. The results shown are representative of four independent experiments. Quantitation of collagenase-1 and stromelysin-expression mRNA levels. The MMP-1 and MMP-3 expression levels were normalized with GAPDH.
Primary chondrocyte cultures were freshly isolated from calf cartilage. The cells were plated at 2.5×10^6 per ml in 100×20 mm culture dishes and incubated in Ham's F12 medium containing 5% FBS overnight at 37° C. […] IL-1 (20 ng/ml) was then added to each plate and the plates incubated for an additional 18 hours. Total RNA was isolated by the acidified guanidine isothiocyanate method and subjected to electrophoresis on a denatured gel. Denatured RNA samples (15 μg) were analyzed by gel electrophoresis in a 1% denatured gel, transferred to a nylon membrane and hydridized with the ^32P-labeled collagenase cDNA probe. ^32P-labeled glyceraldehyde phosphate […] (GAPDH) cDNA as an internal standard to ensure roughly equal loading. The exposed films were scanned and quantitatively analyzed with ImageQuant.

[6] = test system: synoviocytes; experiment: Proliferation assay (MTT); assay type: cell-based; details: 24-hour exposure
Experimental: On day one, 5-10×10^4 synoviocytes were plated per well (96-well plate). Column #1 was kept free of cells (blank). On day 2, the plate was flicked to discard the medium and 200 μl of medium containing various concentrations of drug was added. […] There was no drug added to columns #1 and #2 (blank and untreated control, respectively). The medium containing the drug was discarded and 200 μl of fresh complete medium was added. The cells were then left to grow for an additional 3 to 4 days. On day five, 20 μl of dimethylthiazol diphenyltetrazolium bromide salt (MTT) (5 mg/ml PBS) was added and allowed to incubate for 4 hours at 37° C. The medium was decanted and 200 μl of DMSO was added.
The data were expressed as the % of survival which was obtained by dividing the number of cells remaining after treatment by the number of cells in the untreated control column #2 (the number of cells was obtained from a standard done prior to the assay).

[7] = test system: NF-κB; experiment: NF-κB activity (cell-based) reporter assay in NIH-3T3; parameters: species or system murine; details: 6-hour and 24-hour treatments
Experimental: IL-1 and TNF were both identified as being proinflammatory cytokines that activate the transcription of genes driven by a transcription factor named NF-κB also involved in inflammatory processes. The inflammatory effect of IL-1 and TNF can therefore be indirectly assessed by means of a reporter gene assay (NF-κB) responding to IL-1 and TNF stimulation.
On day one, 5×10^4 NIH-3T3 (murine fibroblast), stably transfected with a NF-κB reporter construct (Luciferase, Promega Corp.), were plated per well (24-well plate). Once confluent (on day 3-4), cells were starved by replacing the complete medium with 1 ml of serum-free medium. Following a 24-hour starvation, cells were treated with various concentrations of anti-microtubule agents 6 hours prior to the addition of IL-1 (20 ng/ml) and TNF (20 ng/ml). Cells were exposed to IL-1 and TNF for 1 hour and 16 hours and NF-κB activity measured 24 hours later. On day five, the medium was discarded and the cells were rinsed once with PBS. Cells were then extracted for 15 minutes with 250 μl of lysis buffer (Promega Corp., Wisconsin). NF-κB transcriptional activity was assessed by adding 25 μl of luciferase substrate to a tube containing 2.5 μl of cell extract. The tube was immediately inserted in a luminometer (Turner Designs) and light emission measured for 10 seconds. The luciferase data were then normalized for protein concentration.

Structure (SMILES) | Inhibition/n ([1]; 0.25%) | Inhibition/n ([1]; 1%) | Inhibition/n ([1]; 5%) | EC50 [2] | intimal hyperplasia [3] | expression of aggrecan [4] | prevented IL-1-induced collagenase expression at concentrations as low as [5] [nM] | IC50 [6] [µM] | inhibitory effect on IL-1- and TNF-induced NF-κB activity [7]
CC[C@@]1(O)C(=O)OCc2c1cc1n(c2=O)Cc2cc3ccccc3nc2-1 [camptothecin] | ¾ | ⅔ | ⅘ | femtomolar concentration range | completely inhibited intimal hyperplasia | – | – | – | –
Nc1ncnc2c1ccn2[C@@H]1O[C@H](CO)[C@@H](O)[C@H]1O [tubercidin, 7-deazaadenosine] | – | ⅓ | ⅔ | – | – | did not affect the expression of aggrecan | 100 | ~0.045 | around 10 μM
